Experimental findings from ChEMBL document CHEMBL1157539, “Thousands of chemical starting points for antimalarial lead identification” (Nature, 2010) are described below.

In the experiment the test system is Plasmodium falciparum. The experiment in a line: GSK_TCMDC: Inhibition of Plasmodium falciparum 3D7 in whole erythrocytes, using parasite LDH activity as an index of growth. Type of experiment: functional, organism-based. Particulars: Plasmodium falciparum, 3D7.

Compound `CCOC(=O)c1ccc(N2CCN(CCCNC(=O)/C(=C/C=C/c3cc4cc(Cl)c(Cl)cc4[nH]3)OC)CC2)cc1` came in with an XC50 of 845 nM.

Consider `Cc1ccc(Nc2nc(N/N=C/c3cccc(O)c3)nc(Nc3ccc([N+](=O)[O-])cc3)n2)cc1C`, for which the XC50 came to 735 nM.

`Cc1cccc(-c2c(C)nc(N)nc2N)c1` gave an XC50 of 1150 nM.

Compound `CC(=O)Nc1nc(C(=O)Nc2cccc(-c3cccc(-c4nc5ccccc5[nH]4)c3)c2)cs1` returned an XC50 of 172 nM.

Consider `CCOC(=O)NC1=NC(C)(C)N(OCCCOc2ccc(C)cc2C)C(NC(=O)OCC)=N1`, for which the XC50 is 126 nM.

In turn, `Cc1cc(N[C@@H](Cc2ccccc2)C(=O)NCc2cccc(F)c2)nc(NCc2ccccc2C)n1` yielded an XC50 of 981 nM.

As to `Fc1ccc2[nH]c(-c3cccc(-c4ccc(CN5CCCCC5)cc4)c3)nc2c1`, the XC50 came to 163 nM.

On to `N#Cc1ccc(C=NNc2nc3ccccc3[nH]2)cc1`, for which the XC50 stood at 1000 nM.

For `CC[C@H](N/C(=N\c1cccc(Cl)c1Cl)Nc1ccc(C#N)cc1O)c1ccccc1`, the XC50 turned out to be 815 nM.

On to `CCCCC(=O)NC(c1cccs1)c1cc(Cl)c2cccnc2c1O` (stereo not drawn), for which the XC50 turned out to be 380 nM.

`O=C(/C=C/c1ccc(Cl)c(Cl)c1)NCCCCCN1CCCN(C(=O)Nc2ccc(Cl)c(C(F)(F)F)c2)CC1` registered an XC50 of 730 nM.

As to `COc1ccc(CN2CCC(NCc3cccc(C(F)(F)F)c3)CC2)cc1`, the XC50 was 753 nM.

On to `CCc1cn(C)c2c(N3CCCC3=O)cc(C(=O)N[C@@H](Cc3ccccc3)[C@H](O)CNCc3cccc(OC)c3)cc12`, for which the XC50 amounted to 784 nM.

`CC(C)(C)COc1ccc2c(N)n[nH]c2c1`: the XC50 was found to be 789 nM.

In the case of `COc1ccc(Nc2ncc3c(-c4cccc(NC(=O)Cc5ccncc5)c4)c[nH]c3n2)cc1OC`, the XC50 came to 1230 nM.

The compound `Cc1cc(NC2CCCC2)nc(Nc2ccc(F)cc2)n1` gave an XC50 of 471 nM.

In turn, `Cn1nccc1C(=O)NCCNCc1cccc(-c2ccc(-c3nc4ccccc4[nH]3)cc2)c1` returned an XC50 of 473 nM.

In the case of `O=C(CSc1nccn1C1CCCCC1)Nc1cc(C(F)(F)F)ccc1Cl`, the XC50 worked out at 402 nM.

Regarding `CN1CCC(N(Cc2ccc(N3CCN(Cc4c[nH]c5ccc(Cl)cc45)CC3)nc2)C2CC2)CC1`, the XC50 came to 999 nM.

`COc1ccc2c(c1)nc(CNC(=N)N)n2Cc1ccc(Cl)cc1` gave an XC50 of 359 nM.

The compound `CN1CCN(c2ccnc3ccc(NC(=O)N(C)c4ccc(Cl)c(Cl)c4)cc23)CC1` had an XC50 of 741 nM.

`Fc1cccc(COc2ccc(Nc3ncnc4sc(C#CCNC5CCC5)cc34)cc2Cl)c1` had an XC50 of 875 nM.

`COc1cc([N+](=O)[O-])ccc1NC(=O)c1cc(Cl)ccc1O` yielded an XC50 of 1140 nM.

`CCCCCCn1c(Sc2ccc(C#N)c([N+](=O)[O-])c2)nnc1-c1ccc(Cl)cc1` came in with an XC50 of 832 nM.

Turning to `CCC1CN2CCc3c([nH]c4ccccc34)C2CC1CC1NCCc2cc(OC)c(OC)cc21` (stereo not drawn), the XC50 worked out at 836 nM.

The compound `COc1ccc(CNCc2cccc(-c3ccc(-c4nc5cccc(C)c5[nH]4)cc3)c2)cc1` returned an XC50 of 237 nM.

Turning to `O=C(NCC1CCC(C(=O)NC2CCCc3ccccc32)CC1)c1ccc(O)c(-c2cccc([N+](=O)[O-])c2)c1` (stereo not drawn), the XC50 was found to be 942 nM.

`COc1ccc2nccc(N3CCC(NCCNCc4cc5c(cn4)OCCO5)C3)c2n1` (stereo not drawn): the XC50 came out at 578 nM.

For the compound `O=C(/C=C/c1ccc(Cl)c(Cl)c1)Nc1cccc(CN2CCC(c3c[nH]c4ccccc34)CC2)c1`, the XC50 amounted to 670 nM.

`COc1ccc2nc(C)cc(N/N=C/C=C/c3ccccc3)c2c1` yielded an XC50 of 701 nM.

As to `Cc1cnc(Nc2cccnc2)nc1Nc1ccccc1C(=O)NC(C)C`, the XC50 was determined as 1200 nM.

In turn, `Cc1ccc(-c2nc(N3CCN(C(=O)c4ccco4)CC3)c3ccccc3n2)cc1` had an XC50 of 970 nM.

In turn, `CN1CCN(c2ccnc3ccc(NC(=O)Nc4ccc(Cl)c(Cl)c4)cc23)CC1` gave an XC50 of 876 nM.

Take `O=C(Nc1cccc(-c2cccc(-c3nc4ccccc4[nH]3)c2)c1)Nc1ccc2c(c1)OCO2`: the XC50 was found to be 167 nM.

Take `O=C(Cc1c[nH]cn1)Nc1ccc(-c2ccc(-c3nc4cc(C(F)(F)F)ccc4[nH]3)s2)cc1`: the XC50 was determined as 657 nM.

In turn, `O=C(Nc1cc(=O)[nH]c2nc(-c3ccccc3)nn12)C1CCCCC1` gave an XC50 of 416 nM.

With `CCCCCCOc1ccc2ccccc2c1CNCCCCCCNCc1c(OCCCCCC)ccc2ccccc12`, the XC50 is 1060 nM.

`CN(C)CCNC(=O)N1CCCN(c2ncnc3cc(-c4ccc(Cl)cc4)sc23)CC1` registered an XC50 of 1020 nM.

In the case of `Cc1noc(C)c1-c1cccc(CNCc2cccc(-c3cccc(-c4nc5cc(F)ccc5[nH]4)c3)c2)c1`, the XC50 worked out at 176 nM.

The compound `CC[C@H]1CN2CC[C@H]1C[C@H]2[C@H](OC(=O)c1ccccc1)c1cc(C#N)nc2ccc(OC)cc12` yielded an XC50 of 915 nM.

Turning to `CC(C)COc1ccc(Cl)cc1Cc1ccc(-c2nc3cc(N4CCN(C)CC4)ccc3[nH]2)o1`, the XC50 turned out to be 945 nM.

The compound `CCCCCNc1nc(Nc2ccccc2C)nc2ccccc12` displayed an XC50 of 735 nM.

In turn, `CN(C(=O)C(C)(C)Oc1ccc(Cl)cc1)C1CCN(CCCCCNC(=O)/C=C/c2ccc(Cl)c(Cl)c2)CC1` had an XC50 of 916 nM.

`COc1ccc(NC(=O)c2cc(-c3ccc(NC(C)=O)cc3)cnc2N)cc1` showed an XC50 of 806 nM.

The compound `COc1ccccc1-c1sccc1C(=O)NC1(c2cc(Cl)cc(Cl)c2)CCCC1` gave an XC50 of 938 nM.

`Cc1cc(F)ccc1-c1nc(N(C)CCN(C)C(=O)N(C)c2ccccc2)nc2c1ccc(=O)n2-c1c(F)cccc1F`: the XC50 came to 1240 nM.

`c1ccc(-c2cccc(-c3ccccn3)n2)nc1` [TERPYRIDINE] showed an XC50 of 901 nM.

`Cc1cccc(CN2CCCN(Cc3ccc(C(=O)Nc4ccc(C(C)(C)C)cc4)cc3)CC2)c1` displayed an XC50 of 727 nM.

Compound `Cc1cc(N2CCCCC2)nc2ccc(NC(=O)c3cccc([N+](=O)[O-])c3)cc12` gave an XC50 of 378 nM.

Consider `CCc1ccc(CN2CCC(CN(C(=O)c3ccccc3)c3ccc(Cl)cc3)CC2)cc1`, for which the XC50 was determined as 991 nM.

For `O=S(=O)(c1ccccc1Cl)N1CCCCC(c2ccc(C(F)(F)F)cc2)=N1`, the XC50 stood at 942 nM.

The compound `CC1(C)C=C(c2ccncc2)c2cc(Cl)ccc2O1` gave an XC50 of 430 nM.

`COc1ccc(CNC(=O)NC2CCN(c3ccnc(Nc4cc(OC)c(OC)c(OC)c4)n3)C2)cc1` (stereo not drawn) had an XC50 of 946 nM.

`COc1ccc2c(NN=Cc3ccncc3)ccnc2c1` returned an XC50 of 956 nM.

`Fc1ccc(C=NN=c2cc[nH]c3ccccc23)cc1` gave an XC50 of 706 nM.

Consider `Cc1cc(N2CCC(NS(=O)(=O)c3ccccc3)CC2)nc(Nc2cccc(C#N)c2)n1`, for which the XC50 is 1350 nM.

Compound `COc1ccc2nccc([C@@H](O)CN3CCC(NCc4cc5sccc5nc4C(F)(F)F)CC3)c2c1` yielded an XC50 of 913 nM.

The compound `Cc1cccn2c(=O)c3cc(C(=O)NC4CCCCC4)c(=N)n(CCCn4ccnc4)c3nc12` showed an XC50 of 753 nM.

In the case of `Cc1cc(NCCC(=O)NCCOc2ccccc2)nc(Nc2ccccc2)n1`, the XC50 is 1060 nM.

`COc1ccc(CN2CCCN(Cc3cccc(C(=O)Nc4ccc(C(C)(C)C)cc4)c3)CC2)cc1`: the XC50 came out at 891 nM.

Compound `c1ccn2c(Sc3ncnc4sccc34)ncc2c1` had an XC50 of 663 nM.

For the compound `C=CCOC(=O)N1CCC(CNCc2cccc(-c3cccc(-c4nc5ccccc5[nH]4)c3)c2)C1` (stereo not drawn), the XC50 turned out to be 340 nM.

`C=C(C)Cn1cc(C2CCN(CCN3CCC(CNC(=O)c4ccc(-c5ccc(C#N)cc5)cc4)CC3)CC2)c2ccccc21` showed an XC50 of 433 nM.
